According to a melting point compilation (Tetko et al.; mined from patent text by program, amines drawn as free bases though some values may be those of a salt):

| melting point [°C] | SMILES |
| --- | --- |
| 121 to 122 | COCCN1CCN(CCc2ccc(Nc3ncc4c(n3)-c3ccccc3C(c3ccc(Cl)c(Cl)c3)C4)cc2)CC1 (stereo not drawn) |
| 200 to 201 | Cc1ccc(S(=O)(=O)N2Cc3cncnc3-c3ccc(Cl)cc3C2c2ccccc2Cl)cc1 (stereo not drawn) |
| 283 to 286 | CCc1n[nH]c2c(=O)[nH]c(-c3cc(S(C)(=O)=O)ccc3OCc3ccccn3)nc12 |
| 191 to 193 | CS(=O)(=O)c1ccc(-c2cc3c(cc2C(=O)c2cc(F)cc(F)c2)OCCO3)cc1 |
| 105 to 106 | CC(=O)Oc1c(C)cc(OCC(=O)c2ccc(C(C)C)cc2)c2ccccc12 |
| 118 to 122 | COc1ccc(C(=O)c2ccoc2)c(Cl)c1Cl |
| 188 to 189 | Cc1c(-c2ccc([N+](=O)[O-])cc2)sc2c1c(=O)c(OC(C)C)cn2Cc1c(F)cccc1F |
| 160 to 161 | COC(=O)[C@H](CC(C)C)NC(=O)c1ccc2c(c1)Nc1ccccc1S2 |
| 146 to 147 | Cc1c(Cc2ccc(F)c(Cl)c2)sc2c(-c3cccc(C(=O)NCCO)c3)cccc12 |
| 77 to 78 | O=S(=O)(c1ccc(Cl)cc1)C(CCCCF)c1cc(F)ccc1F (stereo not drawn) |
| 164 to 165 | NC(=O)c1cc2c(cc1OCC1CCCCC1)OCCC[C@H]2O |
| 90 to 92 | COc1ccc2[nH]c(SCc3ncc(Br)c(N4CCCCC4)c3C)nc2c1 |
| 107 | CC12CC3CC(C)(C1)CC(NC(=O)CCl)(C3)C2 |
| 78 to 79 | COC(=O)CCCC(=O)c1cc2c(c(S(=O)(=O)Cl)c1)OCC2 |
| 113 to 114 | CCC(=NO)c1ccc(Sc2cc(F)cc([C@@]3(OC)CCO[C@@H]3C)c2)cc1 (racemic) |
| 185 | C/C=C/c1ccc2c(NCc3ccc(NC(=O)c4ccc(Cl)nc4)cc3)nc(N(C)C)nc2c1 |
| 108 to 110 | CCCCc1c2ccccc2nc2cc(N)ccc12 |
| 145 to 147 | COC(=O)c1cccc2c1ccn2S(=O)(=O)c1ccc(C)cc1 |
| 71.5 to 74.5 | CCn1cccc1C(N)=S |
| 116 to 117 | Cc1oc(-c2ccccc2)nc1CCOc1ccc(/C=C/C#N)cn1 |
| 97 to 99 | CC(C)(C)OC(=O)NCCCCC(=O)Nc1ccc(OCc2ccccc2)c(C(=O)NCCC(=O)OCc2ccccc2)c1 |
| 225 to 226 | O=C(CN1CCN(c2ccccc2)CC1)Nc1ccc2c(c1NC(=O)c1ccccc1)C(=O)c1ccccc1C2=O |
| 195 to 196 | Cc1oc(-c2ccccc2)nc1CCOc1ccc(C=C2SC(=O)NC2=O)cn1 |

| melting point [°C] | SMILES |
| --- | --- |
| 79 to 80 | CCOC(=O)c1c(C)nc2c(c1N)c1ccccc1n2C |
| 153 to 155 | Cc1cc(NC(=O)N(CC(C)C)CC(C)C)cc(C)c1S(=O)(=O)C[N+](=O)[O-] |
| 153 | O=C(NCC12CC3CC(CC(Cl)(C3)C1)C2)c1ccccc1Cl |
| 127 to 129 | Cc1cc(-c2ccccc2)nc(-c2cccc([N+](=O)[O-])c2)c1C(=O)N1CCN(C)CC1 |
| 167 to 170 | Cc1cccc(NS(=O)(=O)c2ccc(OCc3nc(-c4ccccc4)oc3C)cc2)c1C(=O)O |
| 132 to 136 | NCC(O)CN1CCC(C2(c3ccc(F)cc3)OCCO2)CC1 (stereo not drawn) |
| 156 to 158 | COc1ccc(OC)c2c1COC2O (stereo not drawn) |
| 170 to 171 | CC1(C)N=C(N)N=C(N)N1OCc1cccc2ccccc12 |
| 170 to 172 | COc1ccc(-c2cnc3cc(OC)c(OC)cc3c2)cn1 |
| 120 to 123 | CC(C)(C)[Si](C)(C)OCc1cccc(-c2ccc3nc(Cl)cn3c2)c1 |
| 185 to 188 | COC(=O)Cn1oc2cc(OC)ccc2c1=O |
| 108 to 111 | CCOC(=O)c1ccc(NC(=O)c2cc(Cl)ccc2OC)cc1OCC |
| 176 to 178 | O=c1cc(-c2ccncn2)nc2n1CCOCC2Br (racemic) |
| 206 | BrC(c1ccccc1)(c1ccccc1)C1(c2ccccc2)OCCO1 |
| 207 to 208 | O=C(O)c1cccc(-c2ccc3c(c2)N(Cc2cc(Cl)cc(Cl)c2)CC3)c1 |
| 142 to 143 | CCOC(=O)C1C(c2ccc([N+](=O)[O-])cc2)CC(=O)N1C (stereo not drawn) |
| 135 to 137 | Cc1nn(-c2cc([N+](=O)[O-])c(Cl)cc2F)c(Cl)c1Br |
| 102 to 104 | Cc1cccc(/C=C/c2nc(COc3ccc(CCCCn4ccnc4CC(O)CO)cc3)co2)c1 (stereo not drawn) |
| 124 to 126 | O=Cc1ccc2c(c1I)OCO2 |
| 89 to 91.5 | O=C(O)CC[C@@H](CSc1ccc(Cc2ccccc2)cc1)NC(=O)CCCCCCc1ccccc1 |
| 120 to 122 | O=C1O[C@@H](c2ccccc2)N(C(=O)OCc2ccccc2)[C@H]1Cc1ccccc1 |
| 387 to 392 | O=C(O)c1ccc2nc3sc(-c4ccccc4)cc3c(=O)n2c1 |
| 116 to 117 | CCc1cc(COc2nn(Cc3ccccc3)cc2CO)ccc1OCc1nc(-c2ccco2)oc1C |

| melting point [°C] | SMILES |
| --- | --- |
| 172 to 174 | CCNC(=O)c1nc(-c2ccccc2)c(-c2ccc(=O)n(C(C)C)n2)s1 |
| 186 to 187 | COc1ccc(C(=O)N[C@@H]2CCc3cccc(N4CCN(C)CC4)c3C2)cc1 |
| > 260 | O=C1c2ccccc2C(=O)c2sc(Nc3ccccc3)nc21 |
| 225 to 231 | O=C1COc2cc3[nH]c(C(=O)N4CCC(Cc5ccccc5)CC4)cc3cc2N1 |
| 201 to 202 | O=C(O)c1ccc(OCCC(c2ccccc2)(c2ccccc2)c2ccccc2)cc1 |
| 91 to 93 | CNc1c(OCCN(Cc2ccccc2)C(=O)OC(C)(C)C)cccc1[N+](=O)[O-] |
| 239 to 241 | CSCc1c[nH]c(=O)[nH]c1=O |
| 174 to 175 | CC(c1cc2cc(Cl)ccc2o1)N(O)C(N)=O (stereo not drawn) |
| 164 to 165 | CCCOCC1(C)CCCOc2cc(/C=C/c3ccc(C(=O)O)cc3)ccc21 (stereo not drawn) |
| 191 | Cc1c(-c2ccc(F)cc2)c(-c2ccc(S(C)(=O)=O)cc2)c2n1CCC2 |
| 78 to 79 | CN1CC(CCCl)Oc2ncc(Cl)cc2C1=O (stereo not drawn) |
| 127 to 131 | CNC(=O)CC(C#Cc1ccccc1)c1ccc(OC)c(OC2CCCC2)c1 (racemic) |
| > 250 | CCOC(=O)c1ccc2cc(N)ccn2c1=O |
| 72 to 74 | OC1(Cc2ccccc2)CCN(CCC(c2ccccc2)(c2ccccc2)c2ccccc2)CC1 |
| 236 to 239 | CS(=O)(=O)c1ccc(-c2cnn(-c3ccccc3[N+](=O)[O-])c(=O)c2-c2ccc(F)cc2)cc1 |
| 140 to 142 | CC1(C)CN(CC=CC(=O)Nc2cc3c(Nc4ccc(F)c(Cl)c4)ncnc3cc2OCC2CC2)CC(=O)O1 |
| 168 to 170 | CNC(=O)c1ccc(C)c(-n2c(C)cc(OCc3ccccc3CNC(=O)Nc3cc(C(C)(C)C)nn3-c3cccc(OCCO)c3)c(Cl)c2=O)c1 |
| 133 to 134 | Cc1c([N+](=O)[O-])ccnc1C(=O)NCCNC(=O)OC(C)(C)C |
| 134 to 135 | CCOC(=O)c1cc(NCc2c(C)cccc2C)c2nc(COC)n(C)c2c1 |
| 135 to 137 | C=C1CSC2C(NC(=O)OC(C)(C)C)C(=O)N2C1C(=O)OC(c1ccccc1)c1ccccc1 (stereo not drawn) |
| 153 to 155 | CCCCn1c(=O)c(NC(=O)Nc2c(C(C)C)cc(N)cc2C(C)C)c(-c2cccc(OCCCO)c2)c2cccnc21 |
| 177 to 178 | O=C(NCCO)c1cccc(-c2cccc3nn(Cc4ccc(F)c(Cl)c4)cc23)c1 |
| 109 to 111 | OCC1CCCn2c(cc3ccccc32)C1 (stereo not drawn) |

| melting point [°C] | SMILES |
| --- | --- |
| 277 to 279 | Nc1cccc(-n2c(=O)c3c(Cc4ccccc4)n[nH]c3c3cccnc32)c1 |
| 188 to 190 | c1ccn2nc(-c3ccncc3)nc2c1 |
| 68 | CCCCCCCCCC(=O)Cc1ccc(OCc2ccccc2)c(OCc2ccccc2)c1 |
| 206 to 208 | COc1nc(Nc2ccc(Cl)cc2[N+](=O)[O-])nc(OC)n1 |
| 127 to 128 | CCC1(CC)CSSC[C@@H](C(=O)O)NC1=O |
| 183 to 185 | Oc1cc(Br)c2oc(-c3ccc(O)c(C(F)(F)F)c3)nc2c1 |
| 35 to 38 | CCCCCCCCCCCCc1cc(C)on1 |
| 109 to 111 | CCOC(OCC)c1[nH]c(C2CC2)nc(=O)c1Cl |
| 142 to 144 | CCn1c(C(C)N(C)S(=O)(=O)c2ccc(Cl)c(Cl)c2)cnc1Oc1ccc(Cl)cc1 (stereo not drawn) |
| 149 to 150 | CC(C)c1cc(O)cc2c1C(=O)N(CCl)S2(=O)=O |
| 177 to 179 | COc1ccc(C(=O)C=Cc2cc(Br)ccc2O)cc1 |
| 110 to 112 | N#CCOc1ccc(C(=O)c2ccccc2)c(Cl)c1Cl |
| 87 to 89 | COc1ccc(C2=NN(Cc3ccncc3)C(=O)[C@H]3CCCC[C@@H]23)cc1OC (relative stereo) |
| > 210 | COc1ccnc2[nH]cc(-c3ccnc(N)n3)c12 |
| 137 to 140 | O=C(O)C1Cc2c(ncn2CCC2CCCCC2)CN1C(=O)C(c1ccccc1)c1ccccc1 (stereo not drawn) |
| 62 to 65 | CN(CCOc1ccc(C=O)cc1)C(=O)OC(C)(C)C |
| 84 to 86 | C=CCNC(=S)C(CN1CCOCC1)c1ccccn1 (stereo not drawn) |
| 201 to 206 | N#Cc1cc([N+](=O)[O-])[nH]c1-c1ccc(Cl)cc1 |
| 91 to 92 | CCOC(=O)c1cccc(-c2nc(-c3ccc(C(C)C)cc3)cs2)c1 |
| 175 to 176 | OCC1CC(O)C(n2cnc3c(-n4cccc4)ncnc32)O1 (stereo not drawn) |
| 192 | COc1ccccc1NC(C(N)=O)c1c(Cl)cccc1Cl (stereo not drawn) |
| 106 to 107 | CCNc1nc(Nc2ccccc2)ncc1CCC(=O)OCC |
| 159 to 161 | CCc1ccc2c(c1)C=Cc1sc(C)nc1C2c1cn(Cc2cccc(C(=O)O)c2)c(=O)[nH]c1=O (stereo not drawn) |

| SMILES | melting point [°C] |
| --- | --- |
| C[C@]1(CN2CC=C(c3ccccc3)CC2)Cn2cc([N+](=O)[O-])nc2O1 | 200 to 201 |
| COc1ccc(COCc2nnc3n2-c2ccc(Cl)cc2C(c2ccccc2Cl)=NC3)cc1 | 235 to 237 |
| N#Cc1nn(-c2c(Cl)cc(C(F)(F)F)cc2Cl)c(N)c1SC(F)(F)F | 163 |
| OCc1cn2c(n1)CN=C(c1ccccc1)c1cc(C(F)(F)F)ccc1-2 | 193 to 194 |
| O=C(Cn1nnnc1S)NO | 105 to 107 |
| COCOC1CCC2(C)C(=CCC3C4CCC(=O)C4(C)CCC32)C1 (stereo not drawn) | 130 to 132 |
